Measured values taken from publication PMC10600165 (Nature Communications, 2023).

Target: HK68 (human A/H3N2 HA) (Influenza A virus (A/Hong Kong/1/1968(H3N2)), UniProt Q91MA7)
Assay type: binding

Chain of HK68 (human A/H3N2 HA) (Influenza A virus (A/Hong Kong/1/1968(H3N2)), UniProt Q91MA7) (Q91MA7 17-530 limits assumed): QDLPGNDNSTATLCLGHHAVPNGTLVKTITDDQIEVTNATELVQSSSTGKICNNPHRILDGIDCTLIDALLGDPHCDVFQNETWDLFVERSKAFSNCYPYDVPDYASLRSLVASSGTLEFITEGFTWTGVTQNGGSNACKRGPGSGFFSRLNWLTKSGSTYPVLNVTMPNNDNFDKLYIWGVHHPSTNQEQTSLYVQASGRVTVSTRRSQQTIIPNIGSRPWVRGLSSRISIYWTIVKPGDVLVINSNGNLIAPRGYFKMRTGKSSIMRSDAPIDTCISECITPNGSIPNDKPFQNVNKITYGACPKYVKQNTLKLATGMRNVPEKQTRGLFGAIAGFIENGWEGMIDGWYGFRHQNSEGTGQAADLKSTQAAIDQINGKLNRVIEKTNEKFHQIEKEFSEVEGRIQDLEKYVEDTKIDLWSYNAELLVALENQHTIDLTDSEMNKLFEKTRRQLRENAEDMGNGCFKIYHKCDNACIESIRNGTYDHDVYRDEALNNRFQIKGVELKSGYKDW

For `CC(=O)N[C@H]1[C@H](OCCCCCNC(=O)CCCC[C@@H]2SC[C@@H]3NC(=O)N[C@@H]32)O[C@H](CO)[C@@H](O[C@@H]2O[C@H](CO[C@]3(C(=O)O)C[C@H](OC(C)=O)[C@@H](NC(C)=O)[C@H]([C@H](O)[C@H](O)CO)O3)[C@H](O)[C@H](O)[C@H]2O)[C@@H]1O` [compound 6], the “glycan microarray, fluorescence” value was “specific for 4-O-acetylated Neu5Ac and does not depend on linkage type”.
